“Also recorded” adds a separate entry of the source.
What was measured:
Physcomitrella patens = assay: Protonema growth of moss; type: in vivo; settings: 200 μM for 10 days
Description: (§1) FIG. 17A-FIG. 17D. The effect of ABA and its agonists in Physcomitrella patens and Chlamydomonas. Protonemal growth images (A) and quantitative analysis (B) of the effects of ABA and agonists on Phsycomitrella patens. Protonema were grown on 200 μM of specific test chemical for 10 days. […] Pyrabactin bleached protonema. (C) The expression of ABA-responsive genes of Physcomitrella patens. Protonema were treated with 200 μM chemical solutions for 3 h. (D) Colony growth of Chlamydomonas on the chemical with salinity stress and osmotic stress. There was no effect of ABA and LC66C6 on the Chlamydomonas growth with and without stresses.

Chlamydomonas = assay: Colony growth of Chlamydomonas with and without salinity and osmotic stress; type: in vivo
Description: as §1

Arabidopsis plants = assay: Stomatal aperture measurement; type: in vivo; settings: wild-type, aba2 and abi1-1; 25 μM spray
Description: Physiological assays were performed on Arabidopsis plants grown at 22±2° C. and relative humidity (RH) 45±10% under a 16/8-h light/dark cycle. For transpirational water loss analyses in Arabidopsis, plants were pre-treated by aerosol spray of 4 ml solution containing 25 μM compound and 0.05% Tween-20. 12 4-week old plants were sprayed per compound or control analyzed. After overnight pre-treatment with compounds, the aerial portions were detached from roots, and their fresh weight measured at 20 min intervals over a 2 hour time period. To measure stomatal aperture, plants were pre-treated with compounds as described above, covered with plastic lids to maintain high RH and after overnight pre-treatment leaf epidermal impressions were obtained using Suzuki's Universal Micro-Printing (SUMP) method using SUMP impression solution with SUMP B plates (SUMP Laboratory). The leaf impressions were analyzed by light microscopy and stomatal apertures were determined from the pore widths using ImageJ 1.43v software (National Institutes of Health, USA). […] Pots were covered in Parafilm to so that the water loss measured was transpiration mediated. Soil water content % was determined by measuring pot weight and computed by removing dry soil weight from total weight.

[1] = test system: broccoli, radish, alfalfa, soybean, barely, wheat, sorghum and maize seeds; assay: Germination inhibition in diverse species; type: in vivo; settings: barley
Excerpt: (§2) FIG. 13A-FIG. 13E. LC66C6 modulates ABA responses in diverse species. Germination inhibition (A) and transpirational water loss in detached leaves 2-hours after detachment (B) in response to compounds shown. The expression of ABA-responsive marker genes in Soybean (C), Barley (D) and Maize (E) after application of chemicals. D, P, L and A indicate DMSO, pyrabactin, LC66C6 and (+)-ABA, respectively.

HVA1 and HvDRF1 = assay: Quantitative RT-PCR of ABA-responsive genes in barley; type: in vivo
Excerpt: as §2
(§3) Total RNA was isolated using Plant RNA purification reagent (Invitrogen, USA) according to the manufacturer's instructions. cDNA was synthesized from 1 μg of total RNA using the QantiTec reverse transcription kit (Qiagen, USA). Real-time PCR using Maxima® SYBR Green/Fluorescein qPCR Master Mix (Fermentas) was performed with the iQ5 real-time PCR detection system (Bio-Rad, Hercules, Calif.). The relative amounts of target mRNAs were determined using the relative standard curve method and were normalized by relative amount of internal control mRNA. Biological triplicate experiments were performed.

GmNAC4 and GmbZIP1 = assay: Quantitative RT-PCR of ABA-responsive genes in soybean; type: in vivo
Excerpt: as §2, §3

[2] = test system: ABI1 with PYR/PYL receptors; assay: Receptor-mediated PP2C inhibition assay with ABI1, Example 1; type: biochemical, Arabidopsis; settings: 10 μM; receptors PYR1, PYL1, PYL2, PYL3 and PYL5
Description: FIG. 2A-FIG. 2C. Novel ABA agonists inhibit PPC2 activity through multiple PYR/PYL. (A) Chemical structure of naturally occurring (+)-ABA and selected ABA agonists. (B) and (C) HAB1, ABU, and ABI2 PP2C enzyme activity based ABA-agonist assays for various receptors in the presence or absence of 10 μM each test chemical.
HAB1 and PYL proteins were expressed and purified as described previously (Park S Y, et al. (2009) Abscisic Acid Inhibits Type 2C Protein Phosphatases via the PYR/PYL Family of START Proteins. Science 324(5930):1068-1071), with minor modifications. To obtain GST-HAB1, -ABI1 and -ABI2 fusion proteins, the HAB1 cDNA was cloned into pGex-2T whereas ABI1 and ABI2 cDNAs were cloned into the vector pGex-4T-1. […] After 16 hours incubation at 15° C., cells were harvested and recombinant proteins were purified on glutathione agarose as described previously (Park S Y, et al. (2009). To obtain 6×His-PYL receptor fusion proteins, receptor cDNAs for all 13 ABA receptors were cloned into the vector pET28 and expressed and purified as described previously (Mosquna A, et al. (2011) Potent and selective activation of abscisic acid receptors in vivo by mutational stabilization of their agonist-bound conformation. PNAS 108(51):20838-20843); this yielded soluble and functional protein (assessed using receptor-mediated PP2C inhibition assays) for all receptors except PYL7, PYL11 and PYL12. […]

Compound	Growth of protonema (Physcomitrella patens)	Growth of Chlamydomonas (Chlamydomonas)	Stomatal closure (Arabidopsis plants)	Inhibition of germination in diverse species [1]	Expression of ABA-responsive genes HVA1 and HvDRF1 (HVA1 and HvDRF1)	Expression of ABA-responsive genes GmNAC4 and GmbZIP1 (GmNAC4 and GmbZIP1)	PP2C inhibition of ABI1 [2] [%]
O=S(=O)(NCc1ccccn1)c1ccc(Br)c2ccccc12 [pyrabactin, reference compound]	bleached the protonema	bleached the Chlamydomonas	–	–	–	–	–
CCCN1C(=O)CCc2cc(NS(=O)(=O)Cc3ccc(C)cc3)ccc21 [LC66C6]	weak but significant inhibition	no effect	induces stomatal closure in wild-type and the aba2 mutant, but not in the abi1-1 mutant	inhibits germination; also recorded: greater than pyrabactin	moderately induces	strongly induces	> 70
